Assays:
protein kinase C = test: [3H]PDBu binding to protein kinase C in mixed micelles; design: species or system rat; settings: 16 and 20 mol % PS
Method: [^3 H]PDBu binding was performed as previously described (26).

HL-60 cells [1] = test: Acid phosphatase activities of suspended and attached HL-60 cells; format: cell-based, human
Method: Cells were centrifuged at 600 g for 3 min, and added at 1×10^5 cells per well in 12-well culture dishes. Medium, PMA, and long-chain bases (prepared as the 1:1 molar complex with fatty acid-free bovine serum albumin) at the indicated concentrations were added for a total volume of 2.0 ml. After the desired times, the cells in suspension were counted and checked for viability (trypan blue exclusion) with a hemacytometer. The attached cells were quantitated by measuring DNA content according to the method of West et al (Anal. Biochem., 147, 289-295, 1985) and by assaying for acid phosphatase according to the method of Schnyder (J. Exp. Med., 148, 434-445, 1978).

[2] = system: phorbol ester receptor of HL-60 cells (protein kinase C); test: Competition for [3H]phorbol dibutyrate binding by HL-60 cells; design: species or system human; settings: 12 nM [3H]phorbol dibutyrate, 1 h at 37°; read-out: 50% inhibition of [3H]phorbol dibutyrate binding
Method: Competitive binding assays were conducted as described by Goodwin and Weinberg (J. Clin. Invest, 70, 699-706, 1982 and Ebling et al (ibid.). Approximately 1×10^6 cells/ml were incubated with 12 nM [^3 H]phorbol dibutyrate (8.3 Ci/mmol) and varying concentrations of sphinganine (1:1 with BSA) for 1 h at 37°. The cells were recovered on Millipore filters, washed, and counted. The data were corrected for nonspecific binding by subtracting the cpm obtained in the presence of 300 nM PMA.

HL-60 cells [3] = test: Dioctanoylglycerol-induced attachment of HL-60 cells; format: cell-based; settings: Homo sapiens
Method: When 1,2-dioctanoylglycerol was used, the cells were treated essentially as described by Ebling et al Proc. Natl. Acad. Sci. U.S.A. 82, 815-819, 1985. Sphinganine was added to the cells, then dioctanoylglycerol in 1 μl of ethanol to yield 100 μM, followed by additional maintenance additions of 20 μm diacylglycerol every 2 h for 12 h.

HL-60 cells [4] = test: Morphology and marker enzymes (ANA esterase, acid phosphatase) of HL-60 cells on day 3; format: cell-based, human; settings: 3 days
Description: Expression of most other signs of HL-60 cell differentiation requires longer time periods after treatment with PMA. For these experiments, the cells were examined on day 3 for adherence and acid phosphatase activity (Table IV) and morphology and the marker enzymes alpha-naptholacetate (ANA) esterase and acid phosphatase (Table V).

HL-60 cells [5] = test: [3-3H]sphinganine uptake and metabolism by HL-60 cells; format: in vitro ADME, human
Method: Approximately 1×10^6 HL-60 cells in 1 ml of medium were mixed with an equal volume of medium containing 2.5 μm [3-^3 H]sphinganine (equimolar with BSA). After varying time intervals, an aliquot of the cells was removed and counted and a portion was extracted as described below. The extracts were applied to Silica gel H plates and developed in CHCl3 :methanol: 2N NH4 OH (40:10:1, v/v/v), air dried, sprayed with Amplify (Amersham), and subjected to fluorography.

[6] = system: phorbol ester binding site (protein kinase C) of neutrophils; test: Cellular [3H]-phorbol dibutyrate binding in neutrophils; design: species or system human; settings: 50 μM; 15 min
Method: Neutrophils (1×10^8 cells/ml) were preincubated with the indicated concentration of sphinganine, palmitic acid, or ceramide for five minutes prior to the addition of 50 nM (final concentration) of [^3 H]-phorbol dibutyrate (specific activity of 8.3 Ci/mMole). The cells were incubated an additional 15 min. in a shaking waterbath at 37° C. The incubation mixtures were filtered using an Amicon filtration manifold model VFM-III and washed 5 times with 5 mls of ice-cold PBS-glucose. The filters were counted using a Beckman LS7000 scintillation counter.

neutrophils = test: Cell association of radiolabeled sphinganine with neutrophils; format: in vitro ADME, human; settings: 3, 10, 30 μM plus albumin carrier, 2.5×10^6 cells, 5 min
Method: To determine how much inhibitor was actually becoming associated with the cells, radiolabeled sphinganine (3, 10, 30 μM) plus albumin carrier was incubated with neutrophils (2.5×10^6 cells) for 5 min (i.e. a time longer than that needed to achieve inhibition). After washing by centrifugation, the cell-associated radioactivity was measured. Approximately 20% of the added sphinganine became cell-associated. Therefore, because of partitioning between the albumin and the cells, the cellular concentration of sphinganine was considerably less than the total.

Y-1 tumor cell line = test: ACTH stimulation of steroidogenesis in the Y-1 tumor cell line; format: cell-based; settings: unpublished studies
[7] = system: Ca++/calmodulin-dependent protein kinase; test: Phosphorylation of the 20K protein in platelets; format: cell-based; settings: concentrations which completely abolished phosphorylation of the 40K protein
[8] = 8 nM PMA, 1 μM sphinganine, 24 h
[9] = 8 nM PMA, 1 μM sphinganine, 72 h
[10] = 8 nM PMA, 2.5 μM sphinganine, 24 h
[11] = 8 nM PMA, 2.5 μM sphinganine, 72 h
[12] = 8 nM PMA, 5 μM sphinganine, 24 h
[13] = 8 nM PMA, 5 μM sphinganine, 72 h
[14] = No PMA, 2.5 μM sphinganine, 24 h
[15] = No PMA, 2.5 μM sphinganine, 72 h

Structure (SMILES): CCCCCCCCCCCCC/C=C/[C@@H](O)[C@@H](N)CO [sphingosine]
- inhibition of phorbol-ester binding to mixed micelles (protein kinase C): inhibited

Structure (SMILES): CCCCCCCCCCCCCCC[C@@H](O)[C@@H](N)CO (relative stereo) [Sphinganine, erythro-dihydrosphingosine]
- Acid phosphatase activity, Adherent (HL-60 cells [1]; [8]): 0.44 ± 0.11 nmol/h/dish
- Acid phosphatase activity, Suspended (HL-60 cells [1]; [8]): 0.22 ± 0.07 nmol/h/dish
- Adherence (% of total) (HL-60 cells [1]; [8]): 67 % of total
- Acid phosphatase activity, Adherent (HL-60 cells [1]; [9]): 2.95 ± 0.62 nmol/h/dish
- Acid phosphatase activity, Adherent (%) (HL-60 cells [1]; [9]): 98%
- Acid phosphatase activity, Suspended (HL-60 cells [1]; [9]): 0.05 ± 0.01 nmol/h/dish
- Acid phosphatase activity, Adherent (HL-60 cells [1]; [10]): 0.30 ± 0.04 nmol/h/dish
- Acid phosphatase activity, Suspended (HL-60 cells [1]; [10]): 0.49 ± 0.28 nmol/h/dish
- Adherence (% of total) (HL-60 cells [1]; [10]): 38 % of total
- Acid phosphatase activity, Adherent (HL-60 cells [1]; [11]): 3.10 ± 0.30 nmol/h/dish
- Acid phosphatase activity, Adherent (%) (HL-60 cells [1]; [11]): 98%
- Acid phosphatase activity, Suspended (HL-60 cells [1]; [11]): 0.06 nmol/h/dish
- Acid phosphatase activity, Adherent (HL-60 cells [1]; [12]): 0.14 ± 0.04 nmol/h/dish
- Adherence (% of total) (HL-60 cells [1]; [12]): 21 % of total
- Acid phosphatase activity, Adherent (HL-60 cells [1]; [13]): 0.82 ± 0.38 nmol/h/dish
- Acid phosphatase activity, Adherent (%) (HL-60 cells [1]; [13]): 87%
- Acid phosphatase activity, Suspended (HL-60 cells [1]; [13]): 0.12 ± 0.08 nmol/h/dish
- Acid phosphatase activity, Adherent (HL-60 cells [1]; No PMA, 1 μM sphinganine, 24 h): 0.06 ± 0.03 nmol/h/dish
- Acid phosphatase activity, Suspended (HL-60 cells [1]; No PMA, 1 μM sphinganine, 24 h): 1.53 ± 0.01 nmol/h/dish
- Adherence (% of total) (HL-60 cells [1]; No PMA, 1 μM sphinganine, 24 h): 4 % of total
- Acid phosphatase activity, Adherent (HL-60 cells [1]; No PMA, 1 μM sphinganine, 72 h): 0.05 ± 0.03 nmol/h/dish
- Acid phosphatase activity, Adherent (%) (HL-60 cells [1]; No PMA, 1 μM sphinganine, 72 h): 2%
- Acid phosphatase activity, Suspended (HL-60 cells [1]; No PMA, 1 μM sphinganine, 72 h): 2.77 ± 0.25 nmol/h/dish
- Acid phosphatase activity, Adherent (HL-60 cells [1]; [14]): 0.06 ± 0.02 nmol/h/dish
- Acid phosphatase activity, Suspended (HL-60 cells [1]; [14]): 1.25 ± 0.16 nmol/h/dish
- Adherence (% of total) (HL-60 cells [1]; [14]): 5 % of total
- Acid phosphatase activity, Adherent (HL-60 cells [1]; [15]): 0.05 ± 0.02 nmol/h/dish
- Acid phosphatase activity, Adherent (%) (HL-60 cells [1]; [15]): 2%
- Acid phosphatase activity, Suspended (HL-60 cells [1]; [15]): 2.35 ± 0.11 nmol/h/dish
- Acid phosphatase activity, Adherent (HL-60 cells [1]; No PMA, 5 μM sphinganine, 24 h): 0.04 ± 0.01 nmol/h/dish
- Acid phosphatase activity, Suspended (HL-60 cells [1]; No PMA, 5 μM sphinganine, 24 h): 0.91 ± 0.16 nmol/h/dish
- Adherence (% of total) (HL-60 cells [1]; No PMA, 5 μM sphinganine, 24 h): 4 % of total
- Acid phosphatase activity, Adherent (HL-60 cells [1]; No PMA, 5 μM sphinganine, 72 h): 0.04 ± 0.01 nmol/h/dish
- Acid phosphatase activity, Adherent (%) (HL-60 cells [1]; No PMA, 5 μM sphinganine, 72 h): 14%
- Acid phosphatase activity, Suspended (HL-60 cells [1]; No PMA, 5 μM sphinganine, 72 h): 0.24 ± 0.01 nmol/h/dish
- IC50 [2]: ~15 µM
- activity at 1 µM (HL-60 cells [3]; 1.0 μM sphinganine, compared to cells treated with diacylglycerol only, read-out: % Viable cells attached): 70 ± 32%
- activity at 2.5 µM (HL-60 cells [3]; 2.5 μM sphinganine, compared to cells treated with diacylglycerol only, read-out: % Viable cells attached): 63 ± 21%
- activity at 5 µM (HL-60 cells [3]; 5.0 μM sphinganine, compared to cells treated with diacylglycerol only, read-out: % Viable cells attached): 50 ± 25%
- IC50 (HL-60 cells [3]; 100 μM dioctanoylglycerol, maintenance doses 20 μM every 2 h, read-out: concentration reducing dioctanoylglycerol-induced adherence by 50%): ~5 µM
- Acid phosphatase (HL-60 cells [4]; 8 nM PMA, adherent cells, 1 μM sphinganine): 0.64 nmol/h/105 cells
- Acid phosphatase (HL-60 cells [4]; 8 nM PMA, adherent cells, 2.5 μM sphinganine): 0.60 nmol/h/105 cells
- Acid phosphatase (HL-60 cells [4]; 8 nM PMA, adherent cells, 5 μM sphinganine): 0.64 nmol/h/105 cells
- Acid phosphatase (HL-60 cells [4]; 8 nM PMA, suspended cells, 1 μM sphinganine): 0.19 nmol/h/105 cells
- Acid phosphatase (HL-60 cells [4]; 8 nM PMA, suspended cells, 2.5 μM sphinganine): 0.12 nmol/h/105 cells
- Acid phosphatase (HL-60 cells [4]; 8 nM PMA, suspended cells, 5 μM sphinganine): 0.06 nmol/h/105 cells
- Acid phosphatase (HL-60 cells [4]; No PMA, suspended cells, 1 μM sphinganine): 0.25 nmol/h/105 cells
- Acid phosphatase (HL-60 cells [4]; No PMA, suspended cells, 2.5 μM sphinganine): 0.22 nmol/h/105 cells
- Acid phosphatase (HL-60 cells [4]; No PMA, suspended cells, 5 μM sphinganine): 0.16 nmol/h/105 cells
- time in which approximately half of the sphinganine was taken up from the medium by the cells (HL-60 cells [5]; [3H]sphinganine, HL-60 cells, 37°): ≤ 6 h
- free [3H]sphinganine associated with the cells (HL-60 cells [5]; day 2): 0.07 nmol
- free [3H]sphinganine associated with the cells (HL-60 cells [5]; day 3): 0.06 nmol
- displacement of [3H]-phorbol dibutyrate [6]: 60%
- added sphinganine that became cell-associated (neutrophils): Approximately 20%
- effect on the ACTH-stimulated steroidogenic rate (Y-1 tumor cell line): did not affect
- inhibition of phosphorylation of the 20K protein in platelets [7]: lack of inhibition

From patent publication US4937232A, “Inhibition of protein kinase C by long-chain bases” (priority 1988, dated 1990)
